Assay results from patent publication US12662498B2 (priority 2017, dated 2026).

Assay: ICH stability study of psilocybin batches (appearance, water content, purity, assay)
[1] = T = 1 month, 2-8° C., listed as 170231
[2] = T = 1 month, 25° C./60% RH, listed as 170231
[3] = T = 1 month, 40° C./75% RH, listed as 170231
[4] = T = 3 months, 2-8° C., listed as 170231
[5] = T = 3 months, 25° C./60% RH, listed as 170231
[6] = T = 3 months, 40° C./75% RH, listed as 170231

CN(C)CCc1c[nH]c2cccc(OP(=O)(O)O)c12 [Batch 170231]
Assay by HPLC (on a dry basis) (T = 0): 98.65% ^w/w % w/w | Impurities LT 0.05% (T = 0): 0.22% | Impurities by HPLC: RRT0.69 (T = 0): LT 0.05% | Impurities by HPLC: RRT 1.49 (T = 0): 0.06% | Impurities by HPLC: RRT 1.62 (Psilocin) (T = 0): 0.39% | Impurities by HPLC: RRT 1.70 (T = 0): 0.05% | Impurity at RRT 1.89 (T = 0): LT 0.05% | Impurity at RRT 2.45 (T = 0): LT 0.05% | Chemical Purity By HPLC (T = 0, listed as 170231): 99.28% | Total Impurities (T = 0, listed as 170231): 0.72% | Water content by loss on drying (T = 0, listed as 170231): 0.32% ^w/w % w/w | Assay by HPLC (on a dry basis) (T = 1 month, 2-8° C.): 98.76% ^w/w % w/w | Impurities LT 0.05% (T = 1 month, 2-8° C.): 0.39% | Impurities by HPLC: RRT 1.49 (T = 1 month, 2-8° C.): 0.05% | Impurities by HPLC: RRT 1.62 (Psilocin) (T = 1 month, 2-8° C.): 0.36% | Impurities by HPLC: RRT 1.70 (T = 1 month, 2-8° C.): LT 0.05% | Impurity at RRT 1.89 (T = 1 month, 2-8° C.): LT 0.05% | Impurity at RRT 2.45 (T = 1 month, 2-8° C.): LT 0.05% | Chemical Purity By HPLC [1]: 99.20% | Total Impurities [1]: 0.80% | Water content by loss on drying [1]: 0.27% ^w/w % w/w | Assay by HPLC (on a dry basis) (T = 1 month, 25° C./60% RH): 97.98% ^w/w % w/w | Impurities LT 0.05% (T = 1 month, 25° C./60% RH): 0.42% | Impurities by HPLC: RRT 1.49 (T = 1 month, 25° C./60% RH): 0.05% | Impurities by HPLC: RRT 1.62 (Psilocin) (T = 1 month, 25° C./60% RH): 0.37% | Impurities by HPLC: RRT 1.70 (T = 1 month, 25° C./60% RH): LT 0.05% | Impurity at RRT 1.89 (T = 1 month, 25° C./60% RH): LT 0.05% | Impurity at RRT 2.45 (T = 1 month, 25° C./60% RH): LT 0.05% | Chemical Purity By HPLC [2]: 99.16% | Total Impurities [2]: 0.84% | Water content by loss on drying [2]: 0.17% ^w/w % w/w | Assay by HPLC (on a dry basis) (T = 1 month, 40° C./75% RH): 98.52% ^w/w % w/w | Impurities LT 0.05% (T = 1 month, 40° C./75% RH): 0.41% | Impurities by HPLC: RRT 1.49 (T = 1 month, 40° C./75% RH): 0.06% | Impurities by HPLC: RRT 1.62 (Psilocin) (T = 1 month, 40° C./75% RH): 0.36% | Impurities by HPLC: RRT 1.70 (T = 1 month, 40° C./75% RH): LT 0.05% | Impurity at RRT 1.89 (T = 1 month, 40° C./75% RH): LT 0.05% | Impurity at RRT 2.45 (T = 1 month, 40° C./75% RH): LT 0.05% | Chemical Purity By HPLC [3]: 99.17% | Total Impurities [3]: 0.83% | Water content by loss on drying [3]: 0.19% ^w/w % w/w | Assay by HPLC (on a dry basis) (T = 3 months, 2-8° C.): 98.45% ^w/w % w/w | Impurities LT 0.05% (T = 3 months, 2-8° C.): 0.22% | Impurities by HPLC: RRT0.69 (T = 3 months, 2-8° C.): 0.05% | Impurities by HPLC: RRT 1.49 (T = 3 months, 2-8° C.): 0.05% | Impurities by HPLC: RRT 1.62 (Psilocin) (T = 3 months, 2-8° C.): 0.37% | Impurities by HPLC: RRT 1.70 (T = 3 months, 2-8° C.): LT 0.05% | Impurity at RRT 1.89 (T = 3 months, 2-8° C.): LT 0.05% | Impurity at RRT 2.45 (T = 3 months, 2-8° C.): LT 0.05% | Chemical Purity By HPLC [4]: 99.30% | Total Impurities [4]: 0.70% | Water content by loss on drying [4]: 0.17% ^w/w % w/w | Assay by HPLC (on a dry basis) (T = 3 months, 25° C./60% RH): 99.46% ^w/w % w/w | Impurities LT 0.05% (T = 3 months, 25° C./60% RH): 0.27% | Impurities by HPLC: RRT0.69 (T = 3 months, 25° C./60% RH): LT 0.05% | Impurities by HPLC: RRT 1.49 (T = 3 months, 25° C./60% RH): 0.05% | Impurities by HPLC: RRT 1.62 (Psilocin) (T = 3 months, 25° C./60% RH): 0.36% | Impurities by HPLC: RRT 1.70 (T = 3 months, 25° C./60% RH): LT 0.05% | Impurity at RRT 1.89 (T = 3 months, 25° C./60% RH): LT 0.05% | Impurity at RRT 2.45 (T = 3 months, 25° C./60% RH): LT 0.05% | Chemical Purity By HPLC [5]: 99.31% | Total Impurities [5]: 0.69% | Water content by loss on drying [5]: 0.01% ^w/w % w/w | Assay by HPLC (on a dry basis) (T = 3 months, 40° C./75% RH): 98.64% ^w/w % w/w | Impurities LT 0.05% (T = 3 months, 40° C./75% RH): 0.34% | Impurities by HPLC: RRT0.69 (T = 3 months, 40° C./75% RH): LT 0.05% | Impurities by HPLC: RRT 1.49 (T = 3 months, 40° C./75% RH): 0.06% | Impurities by HPLC: RRT 1.62 (Psilocin) (T = 3 months, 40° C./75% RH): 0.39% | Impurities by HPLC: RRT 1.70 (T = 3 months, 40° C./75% RH): LT 0.05% | Impurity at RRT 1.89 (T = 3 months, 40° C./75% RH): LT 0.05% | Impurity at RRT 2.45 (T = 3 months, 40° C./75% RH): LT 0.05% | Chemical Purity By HPLC [6]: 99.17% | Total Impurities [6]: 0.79% | Water content by loss on drying [6]: 0.19% ^w/w % w/w | Appearance (T = 6 months, 2-8° C.): An off white solid. | Assay by HPLC (on a dry basis) (T = 6 months, 2-8° C.): 97.97% ^w/w % w/w | Chemical Purity By HPLC (T = 6 months, 2-8° C.): 99.20% | Impurities LT 0.05% (T = 6 months, 2-8° C.): 0.32% | Impurities by HPLC: RRT0.69 (T = 6 months, 2-8° C.): 0.06% | Impurities by HPLC: RRT 1.49 (T = 6 months, 2-8° C.): LT 0.05%
